In the supplement of paper PMC9912026:

Tested on: A375
Test: pERK immunofluorescence, normalised; higher = more ERK phosphorylation
Conditions: vemurafenib 0 µM, EGF 100 ng/mL, drug treatment time 24 h
Method: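 A375 or A375 CRISPRa-EGFR (A375_Cra_F7_5/13) cells were adapted for 24 h to a cobimetinib dose series, with or without 1 uM vemurafenib, then stimulated with EGF (100 ng/mL) or mock medium and fixed at the indicated times. pERK was measured by immunofluorescence as the population mean normalised to baseline, with the SD of technical replicates (n=2).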

O=C(c1ccc(F)c(F)c1Nc1ccc(I)cc1F)N1CC(O)([C@@H]2CCCCN2)C1 [cobimetinib]
pERK immunofluorescence
Conditions | cobimetinib 31.62 pM | cobimetinib 0.0001 µM | cobimetinib 0.000316228 µM | cobimetinib 0.001 µM | cobimetinib 0.003162278 µM | cobimetinib 0.01 µM | cobimetinib 0.031622777 µM | cobimetinib 0.1 µM | cobimetinib 0.316227766 µM | cobimetinib 1 µM
time after EGF/mock 0.083 h | 1.19 | 1.2 | 1.133 | 1.18 | 1.39 | 1.4 | 1.37 | 1.04 | 0.268 | 0.134
time after EGF/mock 0.5 h | 1.03 | 1.03 | 0.9538 | 0.887 | 0.782 | 0.594 | 0.411 | 0.333 | 0.336 | 0.144
time after EGF/mock 2 h | 0.959 | 0.965 | 0.891 | 0.782 | 0.4241 | 0.176 | 0.136 | 0.1271 | 0.1234 | 0.12285
time after EGF/mock 8 h | 0.946 | 0.9729 | 0.909 | 0.786 | 0.487 | 0.168 | 0.124 | 0.114 | 0.1065 | 0.1039
time after EGF/mock 24 h | 0.8607 | 0.897 | 0.854 | 0.773 | 0.518 | 0.128 | 0.1071 | 0.1048 | 0.104 | 0.0978
